Laboratory results: US4083947A, “Organ visualization” (The Radiochemical Centre Limited, priority 1975, dated 1978)

How the values were obtained:
[1] = Adrenal scanning/visualization in patients, comparison of 75Se compound with 19-iodocholesterol-131I; type: in vivo, humans
Description: Two patients with Cushing Syndrome were injected intravenously with 500μCi of 6β-methylselenomethyl-19-norcholest-5(10)-en-3β-ol-^75 Se formulated in normal saline stabilized with polysorbate. Repeated gamma camera scans and whole body-, urine- and blood measurements were made during a period of two weeks post injection. In one patient a maximum uptake of 17μCi in the left adrenal region was measured, the removed adrenal cortex adenoma, weight 66 g, containing 15μCi of ^75 Se.
Furthermore, the ^75 Se compound allowed scans to be taken at an earlier point of time after injection than was the case with 19-iodocholesterol-^131 I (2-3 days in contrast to 6-10 days p.i.).

[2] = cited from earlier work
[3] = cited from earlier work; remark: listed apart in the source
[4] = cited from earlier work; remark: listed apart in the source
[5] = compared with 19-iodocholesterol-131I; cited from earlier work

Compound	time after injection at which scans could be taken ([1]; p.i.)	dose giving equally good adrenal scans ([1]; per kg body weight, adrenal cortex adenomas or hyperplasia)	concentration in adrenal glands of dogs [2]	concentration in rat adrenal tissue [3]	concentration in / uptake into human adrenal glands [4]	effectiveness as adrenal scanning agent [5]
CC(C)CCC[C@@H](C)[C@H]1CC[C@H]2[C@@H]3CC=C4C[C@@H](O)CC[C@]4(C[131I])[C@H]3CC[C@]12C [19-iodocholesterol-^131 I]	6 to 10 days	10-20 μCi/kg	concentrate in the adrenal glands	concentrate in the adrenal glands	concentrate in the adrenal glands	–
CC(C)CCC[C@@H](C)[C@H]1CC[C@H]2[C@@H]3C[C@@H](C[131I])C4=C(CC[C@H](O)C4)[C@H]3CC[C@]12C [^131 I-iodinated rearranged product, 6β-iodomethyl-19-norcholest-5(10)-en-3β-ol]	–	–	–	–	–	far more effective adrenal scanning agent than 19-iodocholesterol-^131 I
